Results reported in ChEMBL document CHEMBL4387706, “Discovery of Novel Spiroindoline Derivatives as Selective Tankyrase Inhibitors” (J Med Chem, 2019).
Calls of active or inactive are those of the source. The rule behind the calls is not given here.

Columns and labels:
[1] = target: T1, Poly [ADP-ribose] polymerase tankyrase-2 (Homo sapiens, UniProt Q9H2K2)
T1 sequence (Q9H2K2 whole entry): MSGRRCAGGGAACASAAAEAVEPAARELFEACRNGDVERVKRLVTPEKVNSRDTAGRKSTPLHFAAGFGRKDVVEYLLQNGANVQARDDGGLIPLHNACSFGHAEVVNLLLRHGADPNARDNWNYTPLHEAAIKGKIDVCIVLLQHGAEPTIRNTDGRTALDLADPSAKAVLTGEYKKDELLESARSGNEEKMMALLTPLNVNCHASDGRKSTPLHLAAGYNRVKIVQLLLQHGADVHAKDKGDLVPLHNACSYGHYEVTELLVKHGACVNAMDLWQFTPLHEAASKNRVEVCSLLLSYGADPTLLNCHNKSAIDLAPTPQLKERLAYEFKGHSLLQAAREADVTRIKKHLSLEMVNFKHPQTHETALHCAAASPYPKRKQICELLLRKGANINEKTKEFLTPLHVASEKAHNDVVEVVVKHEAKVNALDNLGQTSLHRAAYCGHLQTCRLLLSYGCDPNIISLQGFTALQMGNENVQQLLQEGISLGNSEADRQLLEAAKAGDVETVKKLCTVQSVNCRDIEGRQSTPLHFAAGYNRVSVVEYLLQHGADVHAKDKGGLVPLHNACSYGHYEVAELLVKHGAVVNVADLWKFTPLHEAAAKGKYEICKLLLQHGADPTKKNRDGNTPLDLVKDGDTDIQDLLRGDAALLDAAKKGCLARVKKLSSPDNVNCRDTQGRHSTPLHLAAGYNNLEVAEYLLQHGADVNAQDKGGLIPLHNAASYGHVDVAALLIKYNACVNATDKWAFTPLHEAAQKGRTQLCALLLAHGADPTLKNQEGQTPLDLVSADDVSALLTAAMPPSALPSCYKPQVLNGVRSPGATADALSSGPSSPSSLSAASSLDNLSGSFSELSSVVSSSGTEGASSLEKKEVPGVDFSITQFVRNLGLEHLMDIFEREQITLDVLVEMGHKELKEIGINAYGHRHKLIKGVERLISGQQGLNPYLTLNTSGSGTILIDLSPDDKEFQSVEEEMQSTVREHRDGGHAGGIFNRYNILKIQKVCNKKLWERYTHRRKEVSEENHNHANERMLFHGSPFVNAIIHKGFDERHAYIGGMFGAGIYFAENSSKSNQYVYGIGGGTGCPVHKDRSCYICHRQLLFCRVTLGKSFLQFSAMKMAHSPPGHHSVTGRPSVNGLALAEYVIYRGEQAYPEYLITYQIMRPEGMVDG
Description: Inhibition of recombinant human N-terminal TEV cleavage site-fused/FLAG-poly his-tagged TNKS2 SAM-PARP domain (613 to 1166 residues) expressed in Escherichia coli assessed as reduction in auto-PARylation preincubated for 10 mins followed by biotinylated-NAD+ addition and measured after 45 mins by ELISA

[2] = AUC (infinity) in ICR mouse at 50 mg/kg, ip; format: ADME, organism-based; set-up: dose 50 mg/kg, route intraperitoneal, time infinity; conditions: in vivo
[3] = organism: Homo sapiens; assay: Effect on hippo signaling protein in human COLO320DM cells assessed as change in CTGF expression at 0.033 to 1 uM measured after 48 hrs by RT-PCR analysis; format: cell-based
[4] = target: Tankyrase 1/2 (Homo sapiens) (UniProt Q9H2K2+O95271); assay: Inhibition of TNKS/TNKS2-mediated beta-catenin signaling in human COLO320DM cells assessed as down regulation of TCF7 mRNA expression at 0.033 to 1 uM measured after 48 hrs by RT-PCR analysis; format: cell-based
[5] = tested on: COLO 320DM; assay: Antitumor activity against human COLO320DM cells xenografted in mouse assessed as tumor growth inhibition at 150 mg/kg, ip administered twice daily for 11 days relative to control; format: functional; conditions: 264 h, read-out: TGI
[6] = target: 5-hydroxytryptamine receptor 1A (Homo sapiens) (UniProt P08908); assay: Displacement of [3H]8-OH-DPAT from full-length recombinant human 5HT1A receptor expressed in CHOK1 cells at 10 uM measured after 60 mins by scintillation counting method relative to control; format: cell-based
[7] = target: Alpha-1A adrenergic receptor (Rattus norvegicus) (UniProt P43140); assay: Displacement of [3H]prazosin from alpha1A receptor in Wistar rat submaxillary gland membranes at 10 uM measured after 60 mins by scintillation counting method relative to control; format: cell membranes
[8] = target: Cannabinoid receptor 1 (Homo sapiens) (UniProt P21554); assay: Displacement of [3H]SR141716A from full-length recombinant human CB1 receptor expressed in human Chem1 cells at 10 uM measured after 60 mins by scintillation counting method relative to control; format: cell-based
[9] = target: Delta-type opioid receptor (Homo sapiens) (UniProt P41143); assay: Displacement of [3H]naltrindole from full-length recombinant human DOR expressed in HEK293 cells at 10 uM measured after 60 mins by scintillation counting method relative to control; format: cell-based
[10] = target: Glutamate NMDA receptor (Rattus norvegicus) (UniProt P35439+Q00959+Q00960+Q00961+Q62645+Q8VHN2+Q9R1M7); assay: Displacement of [3H]CGP-39653 from NMDA receptor in Wistar rat cerebral cortex at 10 uM measured after 20 mins by scintillation counting method relative to control
[11] = target: Histamine H2 receptor (Homo sapiens) (UniProt P25021); assay: Displacement of [125I]aminopotentidine from full-length recombinant human H2 receptor expressed in CHOK1 cells at 10 uM measured after 120 mins by scintillation counting method relative to control; format: cell-based
[12] = organism: Rattus norvegicus; assay: Displacement of [125I]a-dendrotoxin from voltage-gated potassium channel in Wistar rat cerebral cortex at 10 uM measured after 60 mins by scintillation counting method relative to control
[13] = target: MAOA (Homo sapiens, UniProt P21397); assay: Inhibition of full-length recombinant human MAOA expressed in insect cells at 10 uM using kynuramine as substrate preincubated for 15 mins followed by substrate addition and measured after 60 mins by spectrofluorimetric method relative to control; conditions: probe kynuramine
[14] = organism: Rattus norvegicus; assay: Displacement of [3H]batrachotoxinin from Wistar rat brain sodium channel site 2 at 10 uM after 60 mins by scintillation counting analysis relative to control
[15] = target: cGMP-inhibited 3',5'-cyclic phosphodiesterase 3A (Homo sapiens) (UniProt Q14432); assay: Inhibition of full-length recombinant human PDE3A at 10 uM using FAM-cAMP as substrate measured after 30 mins by spectrofluorimetric method relative to control
cGMP-inhibited 3',5'-cyclic phosphodiesterase 3A (Homo sapiens), sequence (Q14432 whole entry): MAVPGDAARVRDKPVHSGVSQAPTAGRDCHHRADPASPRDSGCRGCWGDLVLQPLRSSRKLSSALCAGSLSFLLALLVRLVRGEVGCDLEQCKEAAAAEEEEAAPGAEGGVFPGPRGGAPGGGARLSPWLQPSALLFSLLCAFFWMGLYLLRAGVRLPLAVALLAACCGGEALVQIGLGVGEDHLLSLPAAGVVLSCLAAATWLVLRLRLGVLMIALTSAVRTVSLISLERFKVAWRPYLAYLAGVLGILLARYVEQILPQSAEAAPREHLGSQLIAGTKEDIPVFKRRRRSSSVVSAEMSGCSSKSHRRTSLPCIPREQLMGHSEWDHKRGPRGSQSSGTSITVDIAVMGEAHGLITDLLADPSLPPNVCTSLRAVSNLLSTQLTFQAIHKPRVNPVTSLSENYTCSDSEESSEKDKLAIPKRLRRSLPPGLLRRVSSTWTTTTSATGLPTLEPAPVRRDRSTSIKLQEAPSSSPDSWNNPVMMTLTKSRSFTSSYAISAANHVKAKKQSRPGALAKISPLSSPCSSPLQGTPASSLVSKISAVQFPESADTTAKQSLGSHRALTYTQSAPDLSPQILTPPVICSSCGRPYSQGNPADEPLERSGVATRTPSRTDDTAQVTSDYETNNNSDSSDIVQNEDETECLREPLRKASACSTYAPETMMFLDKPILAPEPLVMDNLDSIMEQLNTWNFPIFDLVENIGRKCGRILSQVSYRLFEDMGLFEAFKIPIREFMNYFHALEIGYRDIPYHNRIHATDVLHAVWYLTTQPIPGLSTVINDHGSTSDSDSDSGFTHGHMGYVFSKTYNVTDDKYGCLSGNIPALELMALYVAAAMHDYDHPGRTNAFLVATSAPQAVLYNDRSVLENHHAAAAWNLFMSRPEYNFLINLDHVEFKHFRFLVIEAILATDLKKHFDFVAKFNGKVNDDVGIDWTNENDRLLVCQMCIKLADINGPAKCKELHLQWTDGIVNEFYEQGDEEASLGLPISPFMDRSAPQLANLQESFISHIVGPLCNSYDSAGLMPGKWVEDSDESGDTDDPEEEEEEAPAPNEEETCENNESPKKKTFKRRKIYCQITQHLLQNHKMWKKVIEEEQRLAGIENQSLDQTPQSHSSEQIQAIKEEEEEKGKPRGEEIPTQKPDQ

Delta-type opioid receptor (Homo sapiens), sequence (P41143 whole entry): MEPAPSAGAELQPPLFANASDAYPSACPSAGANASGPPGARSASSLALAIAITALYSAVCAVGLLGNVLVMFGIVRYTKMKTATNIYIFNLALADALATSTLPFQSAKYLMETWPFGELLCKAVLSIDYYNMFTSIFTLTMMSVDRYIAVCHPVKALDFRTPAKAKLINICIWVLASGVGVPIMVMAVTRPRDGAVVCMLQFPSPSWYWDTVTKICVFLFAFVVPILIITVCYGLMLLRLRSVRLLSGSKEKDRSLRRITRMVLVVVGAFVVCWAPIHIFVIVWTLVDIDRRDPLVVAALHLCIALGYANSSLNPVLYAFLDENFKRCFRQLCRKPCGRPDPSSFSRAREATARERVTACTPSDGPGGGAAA
Histamine H2 receptor (Homo sapiens), sequence (P25021 whole entry): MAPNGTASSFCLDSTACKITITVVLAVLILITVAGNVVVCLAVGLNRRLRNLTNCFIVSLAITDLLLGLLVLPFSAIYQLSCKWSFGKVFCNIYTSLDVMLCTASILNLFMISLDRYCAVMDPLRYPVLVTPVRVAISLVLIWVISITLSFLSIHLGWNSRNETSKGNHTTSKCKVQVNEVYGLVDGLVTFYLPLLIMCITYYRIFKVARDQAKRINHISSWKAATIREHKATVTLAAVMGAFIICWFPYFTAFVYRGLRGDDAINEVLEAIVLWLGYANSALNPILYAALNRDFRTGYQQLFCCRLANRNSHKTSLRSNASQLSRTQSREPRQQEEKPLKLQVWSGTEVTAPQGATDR
MAOA, sequence (P21397 whole entry): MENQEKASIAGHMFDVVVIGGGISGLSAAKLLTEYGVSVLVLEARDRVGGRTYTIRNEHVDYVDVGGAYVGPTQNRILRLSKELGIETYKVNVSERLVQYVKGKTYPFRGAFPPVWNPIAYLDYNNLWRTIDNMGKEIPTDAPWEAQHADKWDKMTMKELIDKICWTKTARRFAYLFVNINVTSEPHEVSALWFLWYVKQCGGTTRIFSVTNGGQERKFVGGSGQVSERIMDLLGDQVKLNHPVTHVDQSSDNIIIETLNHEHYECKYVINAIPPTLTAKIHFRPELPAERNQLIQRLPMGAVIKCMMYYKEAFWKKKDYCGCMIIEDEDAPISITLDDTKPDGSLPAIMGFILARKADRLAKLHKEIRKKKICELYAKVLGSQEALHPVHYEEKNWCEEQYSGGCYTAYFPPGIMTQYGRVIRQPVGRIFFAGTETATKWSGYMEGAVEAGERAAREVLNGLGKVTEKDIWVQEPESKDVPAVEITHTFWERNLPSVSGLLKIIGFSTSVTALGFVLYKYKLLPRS
Tankyrase 1/2 (Homo sapiens), sequence (O95271 whole entry, looked up, one chain of several): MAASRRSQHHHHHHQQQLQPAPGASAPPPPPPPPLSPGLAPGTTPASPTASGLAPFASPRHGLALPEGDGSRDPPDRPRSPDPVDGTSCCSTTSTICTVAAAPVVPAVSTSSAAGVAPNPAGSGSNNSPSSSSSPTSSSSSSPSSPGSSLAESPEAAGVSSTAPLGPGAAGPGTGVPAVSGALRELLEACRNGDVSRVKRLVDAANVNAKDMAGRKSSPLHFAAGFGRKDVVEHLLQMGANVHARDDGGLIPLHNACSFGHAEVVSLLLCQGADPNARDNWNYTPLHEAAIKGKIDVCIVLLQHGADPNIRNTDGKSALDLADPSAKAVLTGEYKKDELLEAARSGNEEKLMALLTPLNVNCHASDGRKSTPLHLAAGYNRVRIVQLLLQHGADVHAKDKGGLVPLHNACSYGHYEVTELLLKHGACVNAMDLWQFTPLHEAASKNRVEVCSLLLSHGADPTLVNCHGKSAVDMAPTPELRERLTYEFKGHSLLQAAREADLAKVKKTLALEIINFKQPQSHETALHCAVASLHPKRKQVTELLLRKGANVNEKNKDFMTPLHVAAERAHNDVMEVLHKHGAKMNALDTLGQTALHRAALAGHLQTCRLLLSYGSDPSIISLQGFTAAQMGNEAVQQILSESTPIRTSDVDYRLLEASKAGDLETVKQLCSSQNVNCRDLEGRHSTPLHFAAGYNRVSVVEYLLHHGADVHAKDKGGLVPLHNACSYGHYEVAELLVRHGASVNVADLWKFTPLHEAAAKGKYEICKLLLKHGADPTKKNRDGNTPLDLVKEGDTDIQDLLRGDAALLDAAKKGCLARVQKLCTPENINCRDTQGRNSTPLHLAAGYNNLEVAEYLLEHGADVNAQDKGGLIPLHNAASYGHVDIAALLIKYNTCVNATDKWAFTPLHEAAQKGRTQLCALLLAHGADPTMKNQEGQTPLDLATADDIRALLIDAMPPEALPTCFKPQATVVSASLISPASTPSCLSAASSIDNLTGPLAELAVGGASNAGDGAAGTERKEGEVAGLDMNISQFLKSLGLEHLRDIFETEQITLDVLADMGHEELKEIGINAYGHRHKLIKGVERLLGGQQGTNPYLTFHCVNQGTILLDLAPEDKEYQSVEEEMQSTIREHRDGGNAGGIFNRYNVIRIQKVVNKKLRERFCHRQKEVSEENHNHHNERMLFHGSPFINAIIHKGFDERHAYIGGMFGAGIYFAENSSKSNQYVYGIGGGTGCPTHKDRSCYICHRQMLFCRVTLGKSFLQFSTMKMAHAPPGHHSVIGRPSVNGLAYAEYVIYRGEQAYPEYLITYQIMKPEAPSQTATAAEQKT
5-hydroxytryptamine receptor 1A (Homo sapiens), sequence (P08908 whole entry): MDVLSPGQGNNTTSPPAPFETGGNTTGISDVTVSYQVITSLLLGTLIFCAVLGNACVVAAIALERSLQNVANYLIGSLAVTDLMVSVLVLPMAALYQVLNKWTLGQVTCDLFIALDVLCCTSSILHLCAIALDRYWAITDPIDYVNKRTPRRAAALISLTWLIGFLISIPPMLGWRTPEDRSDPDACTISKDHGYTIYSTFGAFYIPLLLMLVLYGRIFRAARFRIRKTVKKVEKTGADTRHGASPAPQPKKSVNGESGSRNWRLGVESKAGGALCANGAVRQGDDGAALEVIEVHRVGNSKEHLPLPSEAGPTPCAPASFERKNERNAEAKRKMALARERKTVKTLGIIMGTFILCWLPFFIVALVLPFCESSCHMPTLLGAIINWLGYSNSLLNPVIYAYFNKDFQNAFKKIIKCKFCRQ
Cannabinoid receptor 1 (Homo sapiens), sequence (P21554 whole entry): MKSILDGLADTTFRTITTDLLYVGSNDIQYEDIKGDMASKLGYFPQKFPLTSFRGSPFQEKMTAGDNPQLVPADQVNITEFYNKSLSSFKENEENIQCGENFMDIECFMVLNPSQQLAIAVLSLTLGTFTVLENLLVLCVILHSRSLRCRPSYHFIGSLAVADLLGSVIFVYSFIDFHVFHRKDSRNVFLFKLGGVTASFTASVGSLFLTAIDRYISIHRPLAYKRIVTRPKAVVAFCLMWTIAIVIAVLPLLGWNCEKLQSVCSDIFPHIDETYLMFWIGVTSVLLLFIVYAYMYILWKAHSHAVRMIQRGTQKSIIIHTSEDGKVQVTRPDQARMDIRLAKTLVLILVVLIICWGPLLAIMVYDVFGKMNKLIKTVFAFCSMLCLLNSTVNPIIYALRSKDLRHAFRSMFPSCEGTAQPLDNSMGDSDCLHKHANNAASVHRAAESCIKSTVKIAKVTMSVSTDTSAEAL

Row | IC50 [1] [µM] | SMILES | AUC(0-inf) [2] [µM·h] | Activity [3] | inhibition [4] | inhibition in vivo at 150 mg/kg [5] [%] | inhibition [6] [%] | inhibition [7] [%] | inhibition [8] [%] | inhibition [9] [%] | inhibition [10] [%] | inhibition [11] [%] | inhibition [12] [%] | inhibition at 1 h, 10 µM [13] [%] | inhibition [14] [%] | inhibition [15] [%]
1 | 0.0194 | COc1ccccc1N1CCN(c2nc3c(c(=O)[nH]2)CCCC3)CC1 |  |  |  |  |  |  |  |  |  |  |  |  |  | 
2 |  | O=c1[nH]c(N2CCC3(CC2)CN(CCO)c2cc(F)cc(F)c23)nc2c1CCCC2 | 555 | inactive | Active | 47.2 | > 20 | > 20 | > 20 | > 20 | > 20 | > 20 | > 20 | > 20 | > 20 | > 20
